Measured values from article PMC8776995 (Frontiers in Chemistry, 2022).
Several values for one entry are separate records, joined by “and”; a condition that tells them apart may be missing. Equal entries are not always repeated.

Experiments:
[1] = molecular target: wild-type EGFR (Homo sapiens, UniProt P00533); experiment: EGFR kinase assay (ELISA); settings: for IC50: IC50 (μM) EGFR, ELISA, 3 μmol/L ATP; for A450: raw ELISA absorbance
[2] = test system: H460 cells; experiment: CCK-8 antiproliferation assay, H460; settings: for Inhibitory efficacy: H460 cells; for IC50: NCI-H460, 48 h, read-out: IC50 (μM) H460, CCK-8, 48 h, average ± SD of three independent experiments
Description: (§1) The compounds were dissolved in DMSO to make a 20 μM stock solution and diluted to the concentration of working solutions with complete growth medium before administration.
(§2) Cells were seeded in 96-well plates: 3,000–5,000 cells/well in 100 ul. One day after seeding, the test compounds at concentration between 1.0 and 16.0 μ M or 0.1% DMSO (as control) were added to cells in triplicate. 48 h later, CCK-8 was added and incubated the plate for 1–4 h in the incubator. The absorbance at 450 nm were measured using a microplate reader (Bio-Tek).

[3] = test system: PC-9 cells; experiment: CCK-8 antiproliferation assay, PC-9; settings: for IC50: PC-9, 48 h, read-out: IC50 (μM) PC-9; for Inhibitory efficacy: single repeats (Repeat 1-3), given as fraction
[4] = test system: H1975 cells; experiment: CCK-8 antiproliferation assay, H1975; settings: for IC50: NCI-H1975, 48 h, read-out: IC50 (μM) H1975, CCK-8, 48 h, average ± SD of three independent experiments
Description: as §1, §2

[5] = test system: A549 cells; experiment: CCK-8 antiproliferation assay, A549; settings: for Inhibitory efficacy: A549 cells; for Inhibitory efficacy / inhibition at 2 µM / inhibition at 4 µM / inhibition at 8 µM / inhibition at 16 µM: given as fraction, Repeat 1-3; for IC50 / inhibition at 2 µM / inhibition at 4 µM / inhibition at 8 µM / inhibition at 16 µM: Homo sapiens; for IC50: A549, 48 h, read-out: IC50 (μM) A549, CCK-8, 48 h, average ± SD of three independent experiments; for inhibition at 2 µM / inhibition at 4 µM / inhibition at 8 µM / inhibition at 16 µM: A549, read-out: Inhibitory efficacy, A549 cells
Description: as §1, §2

[6] = 1uM, given as fraction, Repeat 1-3
[7] = 4uM, given as fraction, Repeat 1-3
[8] = Homo sapiens, NCI-H460, read-out: Inhibitory efficacy, H460 cells, 1uM, given as fraction, Repeat 1-3
[9] = Homo sapiens, NCI-H460, read-out: Inhibitory efficacy, H460 cells, 4uM, given as fraction, Repeat 1-3

Chain of wild-type EGFR (P00533 25-1210): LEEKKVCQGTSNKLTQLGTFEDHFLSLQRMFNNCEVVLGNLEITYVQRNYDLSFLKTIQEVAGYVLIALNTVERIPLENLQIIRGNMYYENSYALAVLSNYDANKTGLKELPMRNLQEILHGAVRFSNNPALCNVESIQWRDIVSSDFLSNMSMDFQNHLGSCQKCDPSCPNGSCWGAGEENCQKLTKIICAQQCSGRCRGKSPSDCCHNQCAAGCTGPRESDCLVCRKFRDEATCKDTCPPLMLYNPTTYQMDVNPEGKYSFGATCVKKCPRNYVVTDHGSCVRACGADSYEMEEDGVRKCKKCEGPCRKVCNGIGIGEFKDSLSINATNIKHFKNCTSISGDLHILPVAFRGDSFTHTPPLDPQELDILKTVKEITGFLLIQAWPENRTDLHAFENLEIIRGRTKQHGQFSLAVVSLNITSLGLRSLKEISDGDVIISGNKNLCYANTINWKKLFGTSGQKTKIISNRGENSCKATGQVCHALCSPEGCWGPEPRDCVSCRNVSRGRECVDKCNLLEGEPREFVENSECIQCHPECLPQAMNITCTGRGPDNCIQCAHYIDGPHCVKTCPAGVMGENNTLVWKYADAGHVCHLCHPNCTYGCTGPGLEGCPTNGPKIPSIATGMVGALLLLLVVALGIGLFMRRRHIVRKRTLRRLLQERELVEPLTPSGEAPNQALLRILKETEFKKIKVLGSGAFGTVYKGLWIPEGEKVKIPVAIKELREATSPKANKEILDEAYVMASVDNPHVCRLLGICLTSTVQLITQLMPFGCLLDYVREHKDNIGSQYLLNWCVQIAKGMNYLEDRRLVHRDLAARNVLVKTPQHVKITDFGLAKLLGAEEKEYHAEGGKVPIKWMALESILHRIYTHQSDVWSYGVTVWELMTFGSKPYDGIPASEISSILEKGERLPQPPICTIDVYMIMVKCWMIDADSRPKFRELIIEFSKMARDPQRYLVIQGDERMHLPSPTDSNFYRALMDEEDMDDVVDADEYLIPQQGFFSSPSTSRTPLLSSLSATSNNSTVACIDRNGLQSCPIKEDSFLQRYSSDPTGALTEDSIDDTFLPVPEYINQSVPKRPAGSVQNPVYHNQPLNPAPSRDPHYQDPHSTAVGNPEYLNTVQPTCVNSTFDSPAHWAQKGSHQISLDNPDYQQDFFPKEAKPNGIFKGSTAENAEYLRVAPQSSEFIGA

Work on COCCOc1cc2ncnc(Nc3cccc(-c4cn(-c5ccccc5F)nn4)c3)c2cc1OCCOC [e6, [6,7-Bis-(2-methoxy-ethoxy)-quinazolin-4-yl]-{3-[1-(2-fluoro-phenyl)-1H-[1,2,3]triazol-4-yl]-phenyl}-amine] yielded an inhibition at 0.0003 µM ([1]; 0.3 nM, duplicate wells, calculated from A450) of 17.1%, an Inhibition ([1]; 0.3 nM, duplicate wells, calculated from A450, 0.0003 µM) of 10.6583 and an inhibition at 0.003 µM ([1]; 3 nM, duplicate wells, calculated from A450) of 21.5%. It also gave an Inhibition ([1]; 3 nM, duplicate wells, calculated from A450, 0.003 µM) of 11.5987, an inhibition at 0.03 µM ([1]; 30 nM, duplicate wells, calculated from A450) of 26.3% and an Inhibition ([1]; 30 nM, duplicate wells, calculated from A450, 0.03 µM) of 21.0031. The inhibition at 0.3 µM ([1]; 300 nM, duplicate wells, calculated from A450) was 29.7%, the Inhibition ([1]; 300 nM, duplicate wells, calculated from A450, 0.3 µM) was 21.3166 and the inhibition at 3 µM ([1]; 3000 nM, duplicate wells, calculated from A450) was 70.9%. For the same compound, the Inhibition ([1]; 3000 nM, duplicate wells, calculated from A450, 3 µM) was 70.8464, the inhibition at 30 µM ([1]; 30000 nM, duplicate wells, calculated from A450) was 91.8% and the Inhibition ([1]; 30000 nM, duplicate wells, calculated from A450, 30 µM) was 93.4169. The IC50 [1] was 0.69 µM, the Inhibitory efficacy [2, 6] was 0.0882 and 0.09728 and the Inhibitory efficacy ([2]; 2uM, given as fraction, Repeat 1-3) was 0.2957 and 0.2477. The Inhibitory efficacy [2, 7] was 0.4663 and 0.4358, the Inhibitory efficacy ([2]; 8uM, given as fraction, Repeat 1-3) was 0.4163 and 0.4008 and the Inhibitory efficacy ([2]; 16uM, given as fraction, Repeat 1-3) was 0.4274 and 0.4066. The IC50 ([2]; Homo sapiens) was 18.5 ± 2 µM, the inhibition at 1 µM [2, 8] was 14.7% and the inhibition at 2 µM ([2]; Homo sapiens, NCI-H460, read-out: Inhibitory efficacy, H460 cells, 2uM, given as fraction, Repeat 1-3) was 33.2%. For the same compound, the inhibition at 4 µM [2, 9] was 39.8%, the inhibition at 8 µM ([2]; Homo sapiens, NCI-H460, read-out: Inhibitory efficacy, H460 cells, 8uM, given as fraction, Repeat 1-3) was 42.1% and the inhibition at 16 µM ([2]; Homo sapiens, NCI-H460, read-out: Inhibitory efficacy, H460 cells, 16uM, given as fraction, Repeat 1-3) was 44.7%. For the same compound, the IC50 ([3]; Homo sapiens) was 3.27 ± 0.14 µM, the inhibition at 2 µM ([3]; Homo sapiens, PC-9, read-out: Inhibitory efficacy, PC-9, 2uM, single repeats (Repeat 1-3), given as fraction) was 37.3% and the inhibition at 4 µM ([3]; Homo sapiens, PC-9, read-out: Inhibitory efficacy, PC-9, 4uM, single repeats (Repeat 1-3), given as fraction) was 61.7%. The inhibition at 8 µM ([3]; Homo sapiens, PC-9, read-out: Inhibitory efficacy, PC-9, 8uM, single repeats (Repeat 1-3), given as fraction) was 77.6%, the inhibition at 16 µM ([3]; Homo sapiens, PC-9, read-out: Inhibitory efficacy, PC-9, 16uM, single repeats (Repeat 1-3), given as fraction) was 85% and the Inhibitory efficacy ([3]; PC-9, 2uM, 2 µM) was 0.401 and 0.3548. The Inhibitory efficacy ([3]; PC-9, 4uM, 4 µM) was 0.5712 and 0.6591, the Inhibitory efficacy ([3]; PC-9, 8uM, 8 µM) was 0.783 and 0.7626 and the Inhibitory efficacy ([3]; PC-9, 16uM, 16 µM) was 0.8422 and 0.8588. For the same compound, the IC50 ([4]; Homo sapiens) was 16.5 ± 3.53 µM, the Inhibitory efficacy ([5]; 2uM) was 0.2224 and 0.3459 and the Inhibitory efficacy ([5]; 4uM) was 0.572 and 0.5248. The Inhibitory efficacy ([5]; 8uM) was 0.6524 and 0.6253, the Inhibitory efficacy ([5]; 16uM) was 0.6986 and 0.7076 and the IC50 [5] was 4.88 ± 0.54 µM. It also gave an inhibition at 2 µM ([5]; 2uM) of 25.8%, an inhibition at 4 µM ([5]; 4uM) of 45.7% and an inhibition at 8 µM ([5]; 8uM) of 63.5%. It also gave an inhibition at 16 µM ([5]; 16uM) of 69.8% and a melting point of 83 to 86 °C.

COCCOc1cc2ncnc(Nc3cccc(-c4cn(CCc5ccccc5)nn4)c3)c2cc1OCCOC [e20, [6,7-Bis-(2-methoxy-ethoxy)-quinazolin-4-yl]-[3-(1-phenethyl-1H-[1,2,3]triazol-4-yl)-phenyl]-amine] gave an IC50 [1] of 0.28 µM, an inhibition at 100 fM ([1]; concentration 0.0001 nM (reference for normalisation), one value per replicate column) of 0% and an inhibition at 30 pM ([1]; concentration 0.03 nM, one value per replicate column) of 3.3%. The Inhibition ([1]; concentration 0.03 nM, one value per replicate column, 3e-05 µM) was 3.99, the inhibition at 0.0003 µM ([1]; concentration 0.3 nM, one value per replicate column) was 21.7% and the Inhibition ([1]; concentration 0.3 nM, one value per replicate column, 0.0003 µM) was 27.0358. For the same compound, the inhibition at 0.003 µM ([1]; concentration 3 nM, one value per replicate column) was 38.5%, the Inhibition ([1]; concentration 3 nM, one value per replicate column, 0.003 µM) was 33.7948 and the inhibition at 0.03 µM ([1]; concentration 30 nM, one value per replicate column) was 40.5%. For the same compound, the Inhibition ([1]; concentration 30 nM, one value per replicate column, 0.03 µM) was 35.1792, the inhibition at 0.3 µM ([1]; concentration 300 nM, one value per replicate column) was 42.1% and the Inhibition ([1]; concentration 300 nM, one value per replicate column, 0.3 µM) was 40.798. For the same compound, the inhibition at 3 µM ([1]; concentration 3000 nM, one value per replicate column) was 55.8%, the Inhibition ([1]; concentration 3000 nM, one value per replicate column, 3 µM) was 51.9544 and the inhibition at 30 µM ([1]; concentration 30000 nM, one value per replicate column) was 88.6%. The Inhibition ([1]; concentration 30000 nM, one value per replicate column, 30 µM) was 85.4235, the A450 ([1]; concentration 0.0001 nM) was 1.605 and 1.533 and the A450 ([1]; concentration 0.03 nM) was 1.562 and 1.484. The A450 ([1]; concentration 0.3 nM) was 1.323 and 1.201, the A450 ([1]; concentration 3 nM) was 1.104 and 1.118 and the A450 ([1]; concentration 30 nM) was 1.078 and 1.101. For the same compound, the A450 ([1]; concentration 300 nM) was 1.057 and 1.032, the A450 ([1]; concentration 3000 nM) was 0.879 and 0.895 and the A450 ([1]; concentration 30000 nM) was 0.452 and 0.484. For the same compound, the Inhibitory efficacy [2, 6] was 0.1948 and 0.1895, the Inhibitory efficacy [2, 7] was 0.1258 and 0.07143 and the IC50 ([2]; Homo sapiens) was > 100 µM. The inhibition at 1 µM [2, 8] was 17.3%, the inhibition at 4 µM [2, 9] was 9.76% and the IC50 ([3]; Homo sapiens) was > 100 µM. The Inhibitory efficacy ([4]; H1975 cells, 16uM, given as fraction, Repeat 1-3) was 0.06216 and 0.05712, the IC50 ([4]; Homo sapiens) was > 100 µM and the inhibition at 16 µM ([4]; Homo sapiens, NCI-H1975, read-out: Inhibitory efficacy, H1975 cells, 16uM, given as fraction, Repeat 1-3) was 8.81%. The Inhibitory efficacy ([5]; 2uM) was 0.2224 and 0.1702, the Inhibitory efficacy ([5]; 4uM) was 0.2939 and 0.3309 and the Inhibitory efficacy ([5]; 8uM) was 0.2956 and 0.3275. For the same compound, the Inhibitory efficacy ([5]; 16uM) was 0.2156 and 0.1736, the IC50 [5] was > 100 µM and the inhibition at 2 µM ([5]; 2uM) was 18.8%. It also gave an inhibition at 4 µM ([5]; 4uM) of 29.1%, an inhibition at 8 µM ([5]; 8uM) of 22.2% and an inhibition at 16 µM ([5]; 16uM) of 20.2%. It also gave a melting point of 109 to 112 °C.
